In patent US9045415B2, “Targeting of EWS-FLI1 as anti-tumor therapy” (Georgetown University, priority 2006, dated 2015):
Several values for one entry are separate records, joined by “and”; a condition that tells them apart may be missing. Equal entries are not always repeated. Entries after “also recorded” stand apart in the source; their conditions may differ. Where two headings read alike, the source gives them in different places.

Columns and labels:
TC32 cells = test: Monolayer cell growth (MTT or WST), TC32; format: cell-based; details: for IC50: Homo sapiens, TC-32, 168 h, seven days in culture, read-out: IC50, TC32 cells growing in monolayer
Protocol: (§1) In FIG. 13A, recombinant EWS-FLI1 was treated with NSC635437 for 30 minutes. GST-RHA (630-1020) was added and the complexes were then precipitated with antibody to EWS-FLI1 and Protein G beads. Resolved complexes showing the immunoprecipitated complex control without compound are in lanes 3 (0.1% DMSO) and 5 (0.01% DMSO). […] ESFT TC32 (◯) and neuroblastoma SK-N-AS (▪) were grown for 72 hours in the continuous presence of NSC635437. Cells were incubated in MTT reagent for 4 hours and the dried precipitate was dissolved isopropanol and the absorbance read at 570 nm. Each cell line was standardized to the growth of the DMSO control.
FIG. 30 provides data to show E9R peptide prevents EWS-FLI1 binding to RHA with specific detrimental effects upon ESFT growth and transformation. […] Scale bar equals 20 μm. […] Only expression of EGFP-E9R in TC71 reduced anchorage independent growth. […] Scale bar equals 20 μm.
FIG. 33 provides data showing YK-4-279 is potent and specific inhibitor of ESFT. […] Cell number was measured by MTT or WST reduction after seven days in culture. […] FIG. 33D cell lines expressing EWS-FLI1 compared to non-EWS-FLI1 malignant cell lines following 3 days in culture to establish the IC50 using WST assay. […] Graph plots level of fluorescence in treated divided by untreated lysate. […] Scale bar equals 200 μm.

recombinant EWS-FLI1 = target: T1, recombinant EWS-FLI1 (Homo sapiens, UniProt Q01543+Q01844); test: Surface plasmon resonance (Biacore) binding to EWS-FLI1
T1 sequence (Q01543 1-452): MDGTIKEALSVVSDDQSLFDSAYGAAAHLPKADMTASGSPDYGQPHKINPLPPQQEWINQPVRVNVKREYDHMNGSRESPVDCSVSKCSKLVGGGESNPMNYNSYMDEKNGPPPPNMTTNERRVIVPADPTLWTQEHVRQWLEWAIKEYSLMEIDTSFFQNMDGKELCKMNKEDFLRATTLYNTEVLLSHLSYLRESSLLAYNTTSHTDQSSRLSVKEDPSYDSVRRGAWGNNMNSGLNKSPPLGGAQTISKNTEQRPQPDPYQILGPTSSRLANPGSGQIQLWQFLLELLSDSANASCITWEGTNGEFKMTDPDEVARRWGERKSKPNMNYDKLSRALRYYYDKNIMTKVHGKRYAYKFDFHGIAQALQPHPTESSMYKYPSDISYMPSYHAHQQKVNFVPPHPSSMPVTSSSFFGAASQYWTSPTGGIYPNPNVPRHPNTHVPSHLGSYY
T1 sequence (Q01844 1-656): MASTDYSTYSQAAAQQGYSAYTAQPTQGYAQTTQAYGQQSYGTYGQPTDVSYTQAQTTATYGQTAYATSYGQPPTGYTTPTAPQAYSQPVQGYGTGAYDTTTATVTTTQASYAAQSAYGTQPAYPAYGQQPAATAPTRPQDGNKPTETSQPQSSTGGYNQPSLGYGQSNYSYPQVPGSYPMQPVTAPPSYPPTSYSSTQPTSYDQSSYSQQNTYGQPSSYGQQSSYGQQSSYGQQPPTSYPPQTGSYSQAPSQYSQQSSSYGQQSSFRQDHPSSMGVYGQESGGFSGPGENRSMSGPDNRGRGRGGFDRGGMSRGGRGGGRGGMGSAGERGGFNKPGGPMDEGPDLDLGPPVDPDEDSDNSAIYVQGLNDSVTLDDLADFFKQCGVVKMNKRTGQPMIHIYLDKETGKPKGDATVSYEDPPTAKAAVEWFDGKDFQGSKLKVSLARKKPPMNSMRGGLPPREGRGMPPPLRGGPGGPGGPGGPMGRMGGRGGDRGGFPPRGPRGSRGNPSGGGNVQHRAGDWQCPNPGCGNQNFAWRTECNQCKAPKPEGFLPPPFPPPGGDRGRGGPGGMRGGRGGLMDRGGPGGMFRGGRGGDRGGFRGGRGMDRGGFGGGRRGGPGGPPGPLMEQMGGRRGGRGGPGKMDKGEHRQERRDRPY
Protocol: Antp is conjugated to the amino terminal of all peptides used in these studies. Recombinant EWS-FLI1 (MW 55 kDa) was covalently linked to a CM5 chip at a density of 1200 RU, and E9RP (MW 4 kDa) was evaluated for binding. The E9RP analyte concentrations ranged from 0.03-30 μM, and all are shown in duplicate. E9RP bound to EWS-FLI1 with a KD of 4.0 μM.
An assay that will identify whether a peptide can disrupt RHA from interacting with EWS-FLI1 was developed. The Biacore device is a biosensor that utilizes surface plasmon resonance (SPR) to measure the strength of molecular interactions. SPR is the sensitive measurement of […] light based upon alterations of surface characteristics that change with molecules binding to a surface. The Biacore device combines SPR with a microfluidic system.
The KD of E9RP binding to EWS-FLI1 was calculated to be 4.0 μM (FIG. 4).
A surface plasmon resonance assay using the Biacore T100 was established with EWS-FLI1, prepared in our laboratory as previously published (Uren, A., Tcherkasskaya, O. & Toretsky, J. A. Recombinant EWS-FLI1 oncoprotein activates transcription. Biochemistry 43, 13579-13589 (2004)). DNA oligonucleotides were used to quality control the proper conformation of EWS-FLI1 on the surface of a CM5 chip. Small molecules obtained from the Developmental Therapeutics Program of the National Cancer Institute, NIH (http://dtp.nci.nih.gov/branches/dscb/repo_open.html) were prioritized based upon their molecular weight and solubility. An initial screening of molecules was performed at 1 or 10 μM compound, based on solubility. We used a model that compares the actual binding maximum (actual RU) with the theoretical binding maximum (RUtheor). […] Hits (RUactual to RUtheor of 0.7-2.0) were then reviewed by a team of medicinal chemists and those with structural potentials were selected for further study. Selected molecules were tested in vitro in a solution coimmunoprecipitation assay using recombinant EWS-FLI1 and GST-RHA (647-1075).

RHA binding to EWS-FLI1 = test: Solution immunoprecipitation of GST-RHA with recombinant EWS-FLI1; design: species or system human; details: for binding of GST-RHA (647-1075) to full-length recombinant EWS-FLI1: cell-free assay
Protocol: E9RP is the peptide region of RHA (E9R; SEQ ID NO: 29) fused to the Penetratin peptide (from the Antennapedia homeodomain; SEQ ID NO: 34). Immunoprecipitation of GST-RHA using recombinant EWS-FLI1 bound to a FLI1 antibody. […] E9RP is the sequence of aa 823-832 of human RHA that were synthesized.
as §1
Protein lysates and immunoprecipitations were performed as previously published (Uren et al (2005)). Recombinant GST-RHA (647-1075) was prepared from crude bacterial extracts without further purification.
Reagents were developed to block RHA binding to EWS-FLI1 since RHA is necessary for optimal EWS-FLI1 activity. The E9R peptide corresponds to amino acids 823 to 832, located in the proximal HA2 region of RHA (FIG. 29A). A cell-free protein interaction assay was developed to test whether E9R peptide inhibits RHA binding to EWS-FLI1. […] It was determined whether disrupted EWS-FLI1/RHA binding inhibited cell growth.

[1] = FIG. 24 experiment, read-out: KD
[2] = SPR, EWS-FLI1 immobilized on CM5 chip, read-out: KD of binding to EWS-FLI1

Structure (SMILES)	cell growth (MTT) (TC32 cells; 72 hours continuous presence)	IC50 (TC32 cells)	Kd (recombinant EWS-FLI1; [1])	Kd (recombinant EWS-FLI1; [2])	RUactual:RUtheor (recombinant EWS-FLI1; library screening, single concentration)	RHA binding to EWS-FLI1 in solution binding assay (RHA binding to EWS-FLI1; 10 μM)	complex formation compared to DMSO matched controls (RHA binding to EWS-FLI1; 10 μM and 1 μM, GST-RHA (630-1020))	binding of GST-RHA (647-1075) to full-length recombinant EWS-FLI1 (RHA binding to EWS-FLI1)
O=C(CC1(O)C(=O)Nc2c(Cl)ccc(Cl)c21)c1ccc(Cl)cc1 (stereo not drawn) [NSC635437, 4,7-Dichloro-3-[2-(4-chlorophenyl)-2-oxoethyl]-3-hydroxyl-1,3-dihydro-2H-indol-2-one]	specifically cytotoxic to ESFT cells; also recorded: reduces ESFT	20000 nM	1210 nM and 2020 nM	2340 nM and 2000 nM	0.9	block the binding of RHA to EWS-FLI1	decreased complex formation	reduced the direct binding
COc1ccc(C(=O)CC2(O)C(=O)Nc3c(Cl)ccc(Cl)c32)cc1 (stereo not drawn) [YK-4-279, 4,7-Dichloro-3-hydroxy-3-[2-(4-methoxyphenyl)-2-oxoethyl]-1,3-dihydro-2H-indol-2-one]		900 nM	4560 nM	9480 nM				significantly reduced the protein-protein interaction
